Data taken from a compilation of properties of binary mixtures (doi:10.1016/j.molliq.2021.116359).

Assay: xn = mol fraction of the nth substance listed
Settings: 101.3 kPa, x1 = 0.2

CCCC[N+](CCCC)(CCCC)CCCC.O=S(=O)([O-])O + CCCCCCCCCO
Settings	electrical conductivity [S/m]	speed of sound [m/s]	viscosity [mPa·s]
298.15 K	0.0037	1411.5	137.2
303.15 K	0.005	1395	107.9
318.15 K	0.0102	1346.7	51.9
323.15 K	0.0123	1331.1	41.9
328.15 K	0.0146	1315.7	33.79
333.15 K	0.018	1300.3	27.74
